According to patent US6399617B1, “Use” (Biovitrum AB, priority 2000, dated 2002):

Assays:
ob/ob mice = experiment: Effect of compounds on food intake in ob/ob mice (15 h food consumption during subcutaneous minipump infusion); assay type: in vivo, mouse; conditions: subcutaneous continuous infusion
Experimental: Obese (ob/ob) mouse is selected as the primary animal model for screening as this mutant mouse consumes high amounts of food resulting in a high signal to noise ratio. To further substantiate and compare efficacy data, the effect of the compounds on food consumption is also studied in wild type (C57BL/6J) mice. The amount of food consumed during 15 hours of infusion of compounds is recorded.
Male mice (obese C57BL/6JBom-Lep^ob and lean wild-type C57B1/6JBom; Bomholtsgaard, Denmark) 8-9 weeks with an average body weight of 50 g (obese) and 25 g (lean) are used in all the studies. The animals are housed singly in cages at 23±1° C., 40-60% humidity and have free access to water and standard laboratory chow. The 12/12-h light/dark cycle is set to lights off at 5 p.m. The animals are conditioned for at least one week before start of study.
The test compounds are dissolved in solvents suitable for each specific compound such as cyclodextrin, cyclodextrin/methane sulfonic acid, polyethylene glycol/methane sulfonic acid, or saline. Fresh solutions are made for each study. […] The purity of the test compounds is of analytical grade.
The animals are weighed at the start of the study and randomized based on body weight. Alzet osmotic minipumps (Model 2001D; infusion rate 8 μl/h) are used and loaded essentially as recommended by the Alzet technical information manual (Alza Scientific Products, 1997; Teeuwes and Yam, 1976). Continuous subcutaneous infusion with 24 hours duration is used. The minipumps are either filled with different concentrations of test compounds dissolved in vehicle or with only vehicle solution and maintained in vehicle pre-warmed to 37° C. […]
The weights of the food pellets are measured at 5 p.m. and at 8 p.m. for two days before (baseline) and one day after the implantation of the osmotic minipumps. […]
Food consumption for 15 hours is measured for the three consecutive days and the percentage of basal level values is derived for each animal from the day before and after treatment. The values are expressed as mean±SD and mean±SEM from eight animals per dose group. […]

[1] = Determination of plasma concentration (free plasma concentration at steady state); assay type: in vivo, mouse; conditions: ob/ob mice, subcutaneous continuous infusion
Experimental: The weights of the food pellets are measured at 5 p.m. and at […]. for two days before (baseline) and one day after the implantation of the osmotic minipumps. The weighing is performed with a computer assisted Mettler Toledo PR 5002 balance. Occasional spillage is corrected for. At the end of the study the animals are killed by neck dislocation and trunk blood sampled for later analysis of plasma drug concentrations.
The plasma sample proteins are precipitated with methanol, centrifuged and the supernatant is transferred to HPLC vials and injected into the liquid chromatography/mass spectrometric system. The mass spectrometer is set for electrospray positive ion mode and Multiple Reaction Monitoring (MRM with the transition m/z 316⇄221).
A linear regression analysis of the standards forced through the origin is used to calculate the concentrations of the unknown samples.

COc1ccc(NS(=O)(=O)c2sc3ccc(Cl)cc3c2C)cc1N1CCNCC1.Cl [SB-271046, 5-Chloro-3-methyl-benzo-[b]thiophene-2-sulphonic acid (4-methoxy-3-piperazin-yl-phenyl)-amide monohydrochloride]
reduction of food intake compared to the basal level of food intake (ob/ob mice; 10 mg/kg/day): 45% | reduction of food intake compared to the basal level of food intake (ob/ob mice; 30 mg/kg/day): 60% | reduction of food intake compared to the basal level of food intake (ob/ob mice; 50 mg/kg/day): 77% | Free plasma concentration at the steady state giving the effect ([1]; 10 mg/kg/day): 0.006 | Free plasma concentration at the steady state giving the effect ([1]; 30 mg/kg/day): 0.019 | Free plasma concentration at the steady state giving the effect ([1]; 50 mg/kg/day): 0.034
